According to article PMC7523345 (Investigational new drugs, 2018):

Assay: Phase I dose escalation study: safety, tolerability, DLT and MTD
Format: in vivo

Cc1cccc2c1NC(=O)[C@@H](NC(=O)[C@H](CCC(F)(F)F)[C@H](CCC(F)(F)F)C(N)=O)N=C2c1cccc(F)c1 [BMS-986115]
Abdominal pain (drug related AE, all grades) (Arm B BIW 2 mg (N = 2)): 1 (50) n (%) | Blood creatinine increased (drug related AE, all grades) (Arm B BIW 2 mg (N = 2)): 0 n (%) | Colitis (drug related AE, Grade 3 and 4) (Arm B BIW 2 mg (N = 2)): 0 n (%) | Cough (drug related AE, Grade 3 and 4) (Arm B BIW 2 mg (N = 2)): 0 n (%) | Cough (drug related AE, all grades) (Arm B BIW 2 mg (N = 2)): 0 n (%) | Decreased Appetite (drug related AE, Grade 3 and 4) (Arm B BIW 2 mg (N = 2)): 0 n (%) | Decreased Appetite (drug related AE, all grades) (Arm B BIW 2 mg (N = 2)): 0 n (%) | Dehydration (drug related AE, Grade 3 and 4) (Arm B BIW 2 mg (N = 2)): 0 n (%) | Dehydration (drug related AE, all grades) (Arm B BIW 2 mg (N = 2)): 0 n (%) | Dermatitis acneiform (drug related AE, all grades) (Arm B BIW 2 mg (N = 2)): 0 n (%) | Diarrhoea (drug related AE, Grade 3 and 4) (Arm B BIW 2 mg (N = 2)): 1 (50) n (%) | Diarrhoea (drug related AE, all grades) (Arm B BIW 2 mg (N = 2)): 1 (50) n (%) | Dry mouth (drug related AE, all grades) (Arm B BIW 2 mg (N = 2)): 0 n (%) | Dry skin (drug related AE, all grades) (Arm B BIW 2 mg (N = 2)): 0 n (%) | Dysgeusia (drug related AE, all grades) (Arm B BIW 2 mg (N = 2)): 0 n (%) | Dyspepsia (drug related AE, all grades) (Arm B BIW 2 mg (N = 2)): 1 (50) n (%) | Dysphonia (drug related AE, all grades) (Arm B BIW 2 mg (N = 2)): 0 n (%) | Fatigue (drug related AE, Grade 3 and 4) (Arm B BIW 2 mg (N = 2)): 0 n (%) | Fatigue (drug related AE, all grades) (Arm B BIW 2 mg (N = 2)): 1 (50) n (%) | Flatulence (drug related AE, all grades) (Arm B BIW 2 mg (N = 2)): 0 n (%) | Hypocalcaemia (drug related AE, Grade 3 and 4) (Arm B BIW 2 mg (N = 2)): 0 n (%) | Hypocalcaemia (drug related AE, all grades) (Arm B BIW 2 mg (N = 2)): 0 n (%) | Hypokalaemia (drug related AE, Grade 3 and 4) (Arm B BIW 2 mg (N = 2)): 0 n (%) | Hypokalaemia (drug related AE, all grades) (Arm B BIW 2 mg (N = 2)): 0 n (%) | Hyponatraemia (drug related AE, Grade 3 and 4) (Arm B BIW 2 mg (N = 2)): 0 n (%) | Hyponatraemia (drug related AE, all grades) (Arm B BIW 2 mg (N = 2)): 0 n (%) | Hypophosphataemia (drug related AE, Grade 3 and 4) (Arm B BIW 2 mg (N = 2)): 1 (50) n (%) | Hypophosphataemia (drug related AE, all grades) (Arm B BIW 2 mg (N = 2)): 1 (50) n (%) | Ileus (drug related AE, Grade 3 and 4) (Arm B BIW 2 mg (N = 2)): 0 n (%) | Increased upper airway secretion (drug related AE, all grades) (Arm B BIW 2 mg (N = 2)): 0 n (%) | Laryngeal pain (drug related AE, all grades) (Arm B BIW 2 mg (N = 2)): 0 n (%) | Leucocytosis (drug related AE, Grade 3 and 4) (Arm B BIW 2 mg (N = 2)): 0 n (%) | Mouth ulceration (drug related AE, all grades) (Arm B BIW 2 mg (N = 2)): 0 n (%) | Nausea (drug related AE, Grade 3 and 4) (Arm B BIW 2 mg (N = 2)): 0 n (%) | Nausea (drug related AE, all grades) (Arm B BIW 2 mg (N = 2)): 1 (50) n (%) | Pruritus (drug related AE, Grade 3 and 4) (Arm B BIW 2 mg (N = 2)): 0 n (%) | Pruritus (drug related AE, all grades) (Arm B BIW 2 mg (N = 2)): 0 n (%) | Pulmonary embolism (drug related AE, Grade 3 and 4) (Arm B BIW 2 mg (N = 2)): 0 n (%) | Rash (drug related AE, all grades) (Arm B BIW 2 mg (N = 2)): 0 n (%) | Rash maculopapular (drug related AE, all grades) (Arm B BIW 2 mg (N = 2)): 0 n (%) | Sinusitis (drug related AE, all grades) (Arm B BIW 2 mg (N = 2)): 0 n (%) | Urticaria (drug related AE, Grade 3 and 4) (Arm B BIW 2 mg (N = 2)): 0 n (%) | Vision blurred (drug related AE, all grades) (Arm B BIW 2 mg (N = 2)): 0 n (%) | Vomiting (drug related AE, Grade 3 and 4) (Arm B BIW 2 mg (N = 2)): 0 n (%) | Vomiting (drug related AE, all grades) (Arm B BIW 2 mg (N = 2)): 0 n (%) | Weight decreased (drug related AE, all grades) (Arm B BIW 2 mg (N = 2)): 0 n (%) | No. of patients with DLTs (Arm B BIW 2 mg, 2 DLT evaluable patients): 0 | Abdominal distension (drug related AE, all grades) (Arm B BIW 4 mg (N = 2)): 1 (50) n (%) | Abdominal pain (drug related AE, Grade 3 and 4) (Arm B BIW 4 mg (N = 2)): 0 n (%) | Abdominal pain (drug related AE, all grades) (Arm B BIW 4 mg (N = 2)): 0 n (%) | Blood creatinine increased (drug related AE, all grades) (Arm B BIW 4 mg (N = 2)): 0 n (%) | Colitis (drug related AE, Grade 3 and 4) (Arm B BIW 4 mg (N = 2)): 0 n (%) | Cough (drug related AE, Grade 3 and 4) (Arm B BIW 4 mg (N = 2)): 0 n (%) | Cough (drug related AE, all grades) (Arm B BIW 4 mg (N = 2)): 0 n (%) | Decreased Appetite (drug related AE, Grade 3 and 4) (Arm B BIW 4 mg (N = 2)): 0 n (%) | Decreased Appetite (drug related AE, all grades) (Arm B BIW 4 mg (N = 2)): 0 n (%) | Dehydration (drug related AE, Grade 3 and 4) (Arm B BIW 4 mg (N = 2)): 0 n (%) | Dehydration (drug related AE, all grades) (Arm B BIW 4 mg (N = 2)): 0 n (%) | Dermatitis acneiform (drug related AE, all grades) (Arm B BIW 4 mg (N = 2)): 0 n (%) | Diarrhoea (drug related AE, Grade 3 and 4) (Arm B BIW 4 mg (N = 2)): 0 n (%) | Diarrhoea (drug related AE, all grades) (Arm B BIW 4 mg (N = 2)): 0 n (%) | Dry mouth (drug related AE, all grades) (Arm B BIW 4 mg (N = 2)): 0 n (%) | Dry skin (drug related AE, all grades) (Arm B BIW 4 mg (N = 2)): 0 n (%) | Dysgeusia (drug related AE, all grades) (Arm B BIW 4 mg (N = 2)): 1 (50) n (%) | Dyspepsia (drug related AE, all grades) (Arm B BIW 4 mg (N = 2)): 0 n (%) | Dysphonia (drug related AE, all grades) (Arm B BIW 4 mg (N = 2)): 0 n (%) | Fatigue (drug related AE, Grade 3 and 4) (Arm B BIW 4 mg (N = 2)): 0 n (%) | Fatigue (drug related AE, all grades) (Arm B BIW 4 mg (N = 2)): 1 (50) n (%) | Flatulence (drug related AE, all grades) (Arm B BIW 4 mg (N = 2)): 1 (50) n (%) | Hypocalcaemia (drug related AE, Grade 3 and 4) (Arm B BIW 4 mg (N = 2)): 0 n (%) | Hypocalcaemia (drug related AE, all grades) (Arm B BIW 4 mg (N = 2)): 0 n (%)
